Target: T1, USP1/UAF1 (Homo sapiens, UniProt O94782)
T1 construct: purchased R&D Systems
Assay: Deubiquitination assay for USP1/UAF1 (ubiquitin-rhodamine 110 substrate)
Type: biochemical
Settings: 0.5 nM USP1/UAF1, 150 nM ubiquitin-rhodamine, 50% inhibition compared to DMSO control
Experimental: Deubiquitination assay for USP1/UAF1: compounds described here were tested for their ability to inhibit USP1 deubiquitinase activity in this assay using ubiquitin-rhodamine 110 as the substrate. The assay was conducted in the assay buffer (50 mM Tris-HCl, pH 7.8, 0.5 mM EDTA, 0.1 mg/ml Bovine Serum Albumin, 1 mM DTT, 0.01% Tween-20) in 384 well plates. 0.5 nM USP1/UAF1 (R&D Systems) was incubated with compounds in dose response format for 10 minutes at room temperature. Then the reaction was initiated by addition of 150 nM ubiquitin-rhodamine (R&D Systems). The fluorescence intensity was read after 45 minutes at Ex488/Em535 by CLARIOstar (BMG Labtech). IC50 response curves were plotted.

T1 sequence (O94782 whole entry): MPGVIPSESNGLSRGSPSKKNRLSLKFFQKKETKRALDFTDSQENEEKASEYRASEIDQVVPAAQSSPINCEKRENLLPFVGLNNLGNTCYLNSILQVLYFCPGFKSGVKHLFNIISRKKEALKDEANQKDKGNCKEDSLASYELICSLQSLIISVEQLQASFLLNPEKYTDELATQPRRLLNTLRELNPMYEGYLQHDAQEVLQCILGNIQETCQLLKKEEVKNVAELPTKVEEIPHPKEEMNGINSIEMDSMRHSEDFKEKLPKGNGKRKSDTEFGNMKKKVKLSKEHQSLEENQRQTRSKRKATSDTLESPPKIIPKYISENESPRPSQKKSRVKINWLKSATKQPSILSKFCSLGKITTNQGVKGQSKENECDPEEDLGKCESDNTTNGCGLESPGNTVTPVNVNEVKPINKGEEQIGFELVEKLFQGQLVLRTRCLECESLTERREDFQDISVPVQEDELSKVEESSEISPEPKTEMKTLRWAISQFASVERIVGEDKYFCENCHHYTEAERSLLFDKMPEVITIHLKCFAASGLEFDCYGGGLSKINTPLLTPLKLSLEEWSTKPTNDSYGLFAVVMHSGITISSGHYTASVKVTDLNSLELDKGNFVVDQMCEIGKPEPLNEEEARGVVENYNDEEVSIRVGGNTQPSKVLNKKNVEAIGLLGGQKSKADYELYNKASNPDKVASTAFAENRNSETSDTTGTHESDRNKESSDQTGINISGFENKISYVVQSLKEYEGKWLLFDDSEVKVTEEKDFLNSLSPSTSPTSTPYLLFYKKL
T1 sequence (Q8TAF3 whole entry partner): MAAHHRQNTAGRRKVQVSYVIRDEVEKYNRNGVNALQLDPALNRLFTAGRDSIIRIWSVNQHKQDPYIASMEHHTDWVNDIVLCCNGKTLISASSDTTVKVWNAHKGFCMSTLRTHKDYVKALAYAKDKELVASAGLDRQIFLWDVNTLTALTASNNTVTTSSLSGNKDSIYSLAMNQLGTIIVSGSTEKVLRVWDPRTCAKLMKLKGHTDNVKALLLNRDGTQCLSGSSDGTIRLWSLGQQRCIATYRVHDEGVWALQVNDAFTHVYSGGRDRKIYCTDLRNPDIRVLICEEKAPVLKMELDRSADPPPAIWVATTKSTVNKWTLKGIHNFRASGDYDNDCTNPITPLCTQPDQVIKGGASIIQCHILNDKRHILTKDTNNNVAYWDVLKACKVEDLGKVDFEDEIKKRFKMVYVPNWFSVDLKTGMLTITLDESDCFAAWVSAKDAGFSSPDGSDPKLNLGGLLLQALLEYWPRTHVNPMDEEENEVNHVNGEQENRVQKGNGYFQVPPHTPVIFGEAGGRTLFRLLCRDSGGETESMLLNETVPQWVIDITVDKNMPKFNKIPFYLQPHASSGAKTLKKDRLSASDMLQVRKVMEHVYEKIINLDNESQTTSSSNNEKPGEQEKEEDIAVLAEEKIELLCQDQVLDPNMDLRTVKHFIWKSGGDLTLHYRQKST

`CC(C)n1cc(C(F)(F)F)nc1-c1ccc2cc1C#CCCOc1ncnc(C3CC3)c1-c1ncc3cnn(c3n1)C2` [Example 43] gave an IC50 of 0.1 to 1 µM.

`CC(C)n1cc(C(F)(F)F)nc1-c1ccc2cc1/C=C/CCOc1ncnc(C3CC3)c1-c1ncc3cnn(c3n1)C2` [Example 44, (E)-1^6-cyclopropyl-4^4-(1-isopropyl-4-(trifluoromethyl)-1H-imidazol-2-yl)-2^1H-9-oxa-2(6,1)-pyrazolo[3,4-d]pyrimidina-1(5,4)-pyrimidina-4(1,3)-benzenacyclononaphan-5-ene] showed an IC50 of no more than 0.1 µM.

Compound `CC(C)n1cc(C(F)(F)F)nc1-c1ccc2cc1CCCCOc1ncnc(C3CC3)c1-c1ncc3cnn(c3n1)C2` [Example 45, 1^6-cyclopropyl-4^4-(1-isopropyl-4-(trifluoromethyl)-1H-imidazol-2-yl)-2^1H-9-oxa-2(6,1)-pyrazolo[3,4-d]pyrimidina-1(5,4)-pyrimidina-4(1,3)-benzenacyclononaphane] has an IC50 of no more than 0.1 µM.

For `CC(C)n1cc(C(F)(F)F)nc1-c1ccc2cc1/C=C\CCOc1ncnc(C3CC3)c1-c1ncc3cnn(c3n1)C2` [Example 46, (Z)-1^6-cyclopropyl-4^4-(1-isopropyl-4-(trifluoromethyl)-1H-imidazol-2-yl)-2^1H-9-oxa-2(6,1)-pyrazolo[3,4-d]pyrimidina-1(5,4)-pyrimidina-4(1,3)-benzenacyclononaphan-5-ene], the IC50 was no more than 0.1 µM.

Compound `FC(F)(F)c1cn(C2CC2)c(-c2ccc3cc2CCCCOc2ncnc(C4CC4)c2-c2ncc4ccc(n4n2)C3)n1` [Example 47] has an IC50 of no more than 0.1 µM.

In the case of `CC(C)n1cc(C(F)(F)F)nc1-c1ccc2cc1OCCCCOc1ncnc(C3CC3)c1-c1ncc3cnn(c3n1)C2` [Example 48, 1^6-cyclopropyl-4^4-(1-isopropyl-4-(trifluoromethyl)-1H-imidazol-2-yl)-2^1H-5,10-dioxa-2(6,1)-pyrazolo[3,4-d]pyrimidina-1(5,4)-pyrimidina-4(1,3)-benzenacyclodecaphane], the IC50 is reported as 0.1 to 1 µM.

Compound `CC(C)n1cc(C(F)(F)F)nc1-c1ccc2cc1OCCCOc1ncnc(C3CC3)c1-c1ncc3ccc(=O)n(c3n1)C2` [Example 49, 1^6-cyclopropyl-4^4-(1-isopropyl-4-(trifluoromethyl)-1H-imidazol-2-yl)-2^7,2^8-dihydro-5,9-dioxa-2(2,8)-pyrido[2,3-d]pyrimidina-1(5,4)-pyrimidina-4(1,3)-benzenacyclononaphan-27-one] has an IC50 of no more than 0.1 µM.

For `FC(F)(F)c1cn(C2CC2)c(-c2ccc3c(c2)/C=C/CCOc2ncnc(C4CC4)c2-c2ncc4ccc(n4n2)C3)n1` [Example 51, (2^1Z,5E)-1^6-cyclopropyl-4^4-(1-cyclopropyl-4-(trifluoromethyl)-1H-imidazol-2-yl)-8-oxa-2(2,7)-pyrrolo[2,1-f][1,2,4]triazina-1(5,4)-pyrimidina-4(1,2)-benzenacyclooctaphan-5-ene], the IC50 was no more than 0.1 µM.

With `FC(F)(F)c1cn(C2CC2)c(-c2ccc3cc2OCCCOc2ncnc(C4CC4)c2-c2ncc4ccc(n4n2)C3)n1` [Example 52, (Z)-1^6-cyclopropyl-4^4-(1-cyclopropyl-4-(trifluoromethyl)-1H-imidazol-2-yl)-5,9-dioxa-2(2,7)-pyrrolo[2,1-f][1,2,4]triazina-1(5,4)-pyrimidina-4(1,3)-benzenacyclononaphane] the IC50 was no more than 0.1 µM.

`CC(C)n1cc(C(F)(F)F)nc1-c1ccc2c(c1)C#CCOc1ncnc(C3CC3)c1-c1ncc3cnn(c3n1)C2` [Example 54, (E)-16-cyclopropyl-44-(1-isopropyl-4-(trifluoromethyl)-1H-imidazol-2-yl)-21H-9-oxa-2(6,1)-pyrazolo[3,4-d]pyrimidina-1(5,4)-pyrimidina-4(1,2)-benzenacyclononaphan-5-ene4(1,2 benzenacyclononaphane] gave an IC50 of no more than 0.1 µM.

`CC(C)n1cc(C(F)(F)F)nc1-c1ccc2c(c1)/C=C/CCOc1ncnc(C3CC3)c1-c1ncc3cnn(c3n1)C2` [Example 55, (E)-16-cyclopropyl-44-(1-isopropyl-4-(trifluoromethyl)-1H-imidazol-2-yl)-21H-9-oxa-2(6,1)-pyrazolo[3,4-d]pyrimidina-1(5,4)-pyrimidina-4(1,2)-benzenacyclononaphan-5-ene4(1,2)-benzenacyclononaphane] showed an IC50 of no more than 0.1 µM.

`Cc1cc(C(F)(F)F)nn1-c1ccc2cc1OCCCOc1ncnc(C3CC3)c1-c1ncc3cnn(c3n1)C2` [Example 56, 1^6-cyclopropyl-4^4-(5-methyl-3-(trifluoromethyl)-1H-pyrazol-1-yl)-2^1H-5,9-dioxa-2(6,1)-pyrazolo[3,4-d]pyrimidina-1(5,4)-pyrimidina-4(1,3)-benzenacyclononaphane] showed an IC50 of no more than 0.1 µM.

`FC(F)(F)c1cn(C2CC2)c(-c2ccc3c(c2)/C=C/COc2ncnc(C4CC4)c2-c2ncc4cnn(c4n2)C3)n1` [Example 57] showed an IC50 of no more than 0.1 µM.
